Tests used:
[1] = Crystallinity assessed by Debye-Scherrer photographs; assay type: physicochemical; settings: isolated solid
Source text: The crystallinity of the samples has been assessed on the basis of Debye-Scherrer photographs.

[2] = Stability test (storage at 70° C., 1 bar, content by HPLC); assay type: physicochemical
Description: The thermal decomposition of the compounds of the general formula I and II has been investigated in a stability test. […]
The substances were stored at 70° C., 1 bar. Measurements were in HPLC % areas

| Compound | Debye-Scherrer photograph (crystallinity) [1] | Stability on storage in an open vessel (relative content by HPLC) ([2]; 0 days) [HPLC % areas] | Stability on storage in an open vessel (relative content by HPLC) ([2]; 7 days) | Stability on storage in an open vessel (relative content by HPLC) ([2]; 14 days) |
| --- | --- | --- | --- | --- |
| N-((Hydroxycarbonyl)methylene)-(R)-cyclohexylalanyl-(S)-3,4-dehydroproline 6-Amidino-3-picolinylamide (Betaine) [1st Example] | amorphous | – | – | – |
| N=C(N)c1ccc(CNC(=O)[C@@H]2C=CCN2C(=O)[C@@H](CC2CCCCC2)NCC(=O)O)cn1.O=C1NS(=O)(=O)c2ccccc21 [Saccharin salt, N-((Hydroxycarbonyl)methylene)-(R)-cyclohexylalanyl-(S)-3,4-dehydroproline 6-Amidino-3-picolinylamide Saccharinate] | crystalline | 100 | 100 HPLC % areas | 101 HPLC % areas |
| CC(=O)O.N=C(N)c1ccc(CNC(=O)[C@@H]2C=CCN2C(=O)[C@@H](CC2CCCCC2)NCC(=O)O)cn1 [Acetate, N-((Hydroxycarbonyl)methylene)-(R)-cyclohexylalanyl-(S)-3,4-d ehydroproline 6-Amidino-3-picolinylamide Acetate] | amorphous | 100 | 92.6 HPLC % areas | 87.2 HPLC % areas |
| N=C(N)c1ccc(CNC(=O)[C@@H]2C=CCN2C(=O)[C@@H](CC2CCCCC2)NCC(=O)O)cn1.O=C(O)/C=C/C(=O)O [Fumarate, N-((hydroxycarbonyl)methylene)-(R)-cyclohexylalanyl-(S)-3,4-dehydroproline 6-Amidino-3-picolinylamide Fumarate] | amorphous | 100 | 87.9 HPLC % areas | 87.1 HPLC % areas |
| CC1=CC(=O)NS(=O)(=O)O1.N=C(N)c1ccc(CNC(=O)[C@@H]2C=CCN2C(=O)[C@@H](CC2CCCCC2)NCC(=O)O)cn1 [Acesulfame salt, N-((Hydroxycarbonyl)methylene)-(R)-cyclohexylalanyl-(S)-3,4-dehydroproline 6-Amidino-3-picolinylamide Acesulfamate] | crystalline | 100 | 96,7 HPLC % areas | 88,4 HPLC % areas |
